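Compound exposure: 48 hours, 5 concentrations, 96-well plates. GI50 marks 50% less growth.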 Active and inactive are the calls of the source. Rule as the data show it: active = GI50 up to about 1.1 µM and inactive = higher.
Key:
Experiment in all cases: NCI anticancer screen, dose series, 48 h
[1] = system: DLD-1
[2] = system: XF498
[3] = system: LXFL 529
[4] = system: SNB-78
[5] = system: HOP-18
[6] = system: RXF 631
[7] = system: DMS-273
[8] = system: DMS-114
[9] = system: M19-MEL

Measured: GI50

N=C(N)n1ncc(Cl)c(Cl)c1=O
inactive: [1] 2.38 µM | [2] 1.81 µM | [3] 1.8 µM | [4] 1.98 µM | [5] 1.38 µM | [6] 1.81 µM | [7] 2.28 µM | [8] 1.85 µM | [9] 1.69 µM

CC12CCC[C@@](C)(C(=O)OC3OC(CO)C(O)C(O)C3O)[C@H]1CCC13CC4CC(OC4(CO)[C@H]1O)[C@@H]23 (some centres not stated)
inactive: [1] > 100 µM | [2] > 100 µM | [3] > 100 µM | [4] > 100 µM | [5] > 100 µM | [6] > 100 µM | [7] > 100 µM | [8] 24.9 µM | [9] > 100 µM

O=S(=O)(O)SC/C=C\CSS(=O)(=O)O
inactive: [1] > 100 µM | [2] > 100 µM | [3] > 100 µM | [4] > 100 µM | [5] > 100 µM | [6] 37.5 µM | [7] 69.5 µM | [8] 42.7 µM | [9] 98.9 µM

From ChEMBL document CHEMBL1201862, “PubChem BioAssay data set” (2004)
